# Source: publication PMC7473324, “Histo-blood group antigens as divergent factors of groups A and C rotaviruses circulating in humans and different animal species” (Emerging Microbes & Infections, 2020)
# Target: T1, GST-VP8* of P[16] murine RVA EMcN (Murine rotavirus EMcN, UniProt Q6WVQ1)
# T1 construct: gene VP4; VP8* core aa 46-231, cut from VP4 precursor; N-terminal GST fusion kept; E. coli BL21
# Test: CFG glycan array, GST-VP8* detected with fluorescent anti-GST antibody (RFU)
# Assay type: binding
# Details: immobilised glycan
compound,measurement,value
"OC[C@H]1O[C@H](O[C@H]2[C@@H](O)[C@@H](CO)O[C@@H](O[C@H]3[C@H](O)[C@@H](O)C(O)O[C@@H]3CO)[C@@H]2O)[C@H](O)[C@@H](O)[C@H]1O (stereo partly shown) [compound 117, Galα1-3Galβ1-4Glc]","CFG glycan array, GST-VP8* detected with fluorescent anti-GST antibody (RFU)",Four strains exhibited strongest binding signals to the αGal containing glycans
